Results published in patent US20120270935A1, “FORMULATIONS” (priority 2009, published 2012).
Values after ≈ are worked out from the molar mass of the structure shown. Read-outs that look alike come from different tables or passages of the source.

Key:
P. acnes NCTC 737 = experiment: Minimum inhibitory concentration (MIC) assay, broth microtitre; assay type: cell-based, Propionibacterium acnes; details: compound in DMSO, triplicate
Experimental: The first test micro-organism used was Propionibacterium acnes NCTC 737. This is a propionibacterial strain and is the type strain of the […]; it is fully susceptible to antibiotics.
The propionibacteria were cultured and maintained on Wilkins-Chalgren Anaerobe Medium (agar and broth) at pH 6.0; all cultures were incubated anaerobically at 37° C. for 72 hours.
This is a standard international method for quantitatively assessing the antimicrobial activity of a compound in a liquid medium. The method used a sterile 96-well microtitre plate, capable of holding about 200 μl of liquid per well. The wells contained liquid culture medium and ranges of decreasing concentrations of the relevant test compound in doubling dilutions (eg 1000, 500, 250, 125 . . . μg/ml, etc. down to 0.49 μg/ml). The culture medium was as described above.
(§1) The wells were inoculated with a liquid suspension of freshly grown micro-organism and incubated under the conditions described above. After incubation, the microtitre plate was examined visually (with the aid of a light box) for cloudiness in each well, which would indicate microbial growth. The MIC value was recorded as the lowest concentration of test compound required to inhibit microbial growth, ie the lowest concentration for which the liquid in the well remained clear.
(§2) The assays included both negative (culture medium with no micro-organisms) and positive (culture medium plus diluting solvent plus micro-organism) controls.
DDA assays, as described above, were carried out using as the test formulation the gel prepared in Example 2B above. Also tested was the Example 2B gel minus the Klucel™ thickener, which was also subjected to MIC and MBC assays. For the DDAs, which were performed in triplicate, 100 μl of the relevant formulation was loaded onto each disc, and zones of inhibition were recorded after 3 days' anaerobic incubation at 37° C. The MIC and MBC tests were performed in duplicate and the results recorded after 3 days and 7 days respectively, post-subculture onto drug-free medium. […]

S. aureus ATCC 29213 [1] = experiment: MIC assay; assay type: cell-based, Staphylococcus aureus; details: Mueller-Hinton broth pH 7.0
Excerpt: (§3) (a) staphylococci. The Staphylococcus aureus strain used was ATCC 29213. S. aureus and other staphylococci are common causes of a wide range of skin, skin structure and wound infections; S. aureus is also known to exacerbate eczema. The ATCC 29213 strain is known to be susceptible to beta-lactam antibiotics such as methicillin. The Staphylococcus epidermidis strain used was NCTC 11047. Staph. epidermidis forms part of the resident flora of skin and is an opportunistic pathogen which can cause biofilms to grow for instance on plastic surgical implants such as catheters. Unless otherwise stated, the staphylococci were cultured and maintained on Mueller-Hinton Medium (agar and broth) at pH 7.2; cultures were incubated aerobically at 37° C. for 19-20 hours, at pH 7 (±0.2). (b) C. striatum NCTC 764. Corynebacterium striatum is closely related to organisms (aerobic diphtheroids of the genus Corynebacterium) that cause body odour. It was cultured and maintained on Mueller-Hinton medium (agar and broth). All cultures were incubated aerobically at 37° C. for 72 hours, at pH 7 (±0.2). (c) streptococci. The strains tested were S. mutans ATCC 25175 and S. pyogenes ATCC 12344. S. mutans is a Gram-positive, microaerophilic bacterium which plays a significant role in dental caries and in infective endocarditis. […]
This is a standard international method for quantitatively assessing the antimicrobial activity of a compound in a liquid medium. […]
The wells were inoculated with a liquid suspension of freshly grown micro-organism and incubated under the conditions described above. […] The MIC value was recorded as the lowest concentration of test compound required to inhibit microbial growth, ie the lowest concentration for which the liquid in the well remained clear. […]
(§4) Example 8 was repeated (except for the supplemented DDA assays), using S. aureus ATCC 29213 as the test organism. […] In the DDA assays, 200 μg is of each compound was loaded onto each disc: the culture medium was Mueller-Hinton agar at pH 7.0, and results were recorded after overnight incubation at 37° C. in air. […]

S. aureus ATCC 29213 [2] = experiment: MBC assay; assay type: cell-based, Staphylococcus aureus; details: Mueller-Hinton broth pH 7.0
Excerpt: as §3, with “endocarditis. Streptococcus pyogenes is associated with skin, soft tissue, burn and wound infections. S. mutans was cultured and maintained on Wilkins-Chalgren Anaerobe medium+1 g/L glucose (agar and broth); it was incubated in air at 37° C. for 48 hours, at pH 7 (±0.2) with 5% carbon dioxide. S. pyogenes was cultured and maintained on Mueller-Hinton medium (broth and agar) and was incubated under the same conditions as S. mutans.” for “endocarditis.”
as §4

S. aureus ATCC 29213 [3] = experiment: Disc diffusion assay (DDA); assay type: cell-based, Staphylococcus aureus; details: 200 μg per disc, Mueller-Hinton agar pH 7.0, overnight at 37° C. in air
Excerpt: as §3, with “endocarditis. Streptococcus pyogenes is associated with skin, soft tissue, burn and wound infections.” for “endocarditis.”
A sterile paper disc was impregnated with a sample of the test compound in a suitable solvent and 30 minutes allowed for the solvents to evaporate (where possible). […] The diameter of this zone of “inhibition” was measured using a ProtoCOL™ automated zone sizer (Synbiosis, Cambridge, UK). […]
as §4

C. striatum NCTC 764 = experiment: MBC assay; assay type: cell-based, Corynebacterium striatum; details: triplicate
Excerpt: (a) staphylococci. The Staphylococcus aureus strain used was ATCC 29213. S. aureus and other staphylococci are common causes of a wide range of skin, skin structure and wound infections; S. aureus is also known to exacerbate eczema. The ATCC 29213 strain is known to be susceptible to beta-lactam antibiotics such as methicillin. The Staphylococcus epidermidis strain used was NCTC 11047. Staph. epidermidis forms part of the resident flora of skin and is an opportunistic pathogen which can cause biofilms to grow for instance on plastic surgical implants such as catheters. Unless otherwise stated, the staphylococci were cultured and maintained on Mueller-Hinton Medium (agar and broth) at pH 7.2; cultures were incubated aerobically at 37° C. for 19-20 hours, at pH 7 (±0.2). (b) C. striatum NCTC 764. Corynebacterium striatum is closely related to organisms (aerobic diphtheroids of the genus Corynebacterium) that cause body odour. It was cultured and maintained on Mueller-Hinton medium (agar and broth). All cultures were incubated aerobically at 37° C. for 72 hours, at pH 7 (±0.2). (c) streptococci. The strains tested were S. mutans ATCC 25175 and S. pyogenes ATCC 12344. S. mutans is a Gram-positive, microaerophilic bacterium which plays a significant role in dental caries and in infective endocarditis. Streptococcus pyogenes is associated with skin, soft tissue, burn and wound infections. S. mutans was cultured and maintained on Wilkins-Chalgren Anaerobe medium+1 g/L glucose (agar and broth); it was incubated in air at 37° C. for 48 hours, at pH 7 (±0.2) with 5% carbon dioxide. S. pyogenes was cultured and maintained on Mueller-Hinton medium (broth and agar) and was incubated under the same conditions as S. mutans.
This assay, normally carried out after an MIC assay, determines the minimum concentration of a compound that is lethal to the micro-organism being tested.
These samples were then individually sub-cultured on antibiotic-free agar medium, under the incubation conditions described above. Following incubation they were examined visually for microbial growth. […]

S. mutans ATCC 25175 = experiment: MIC assay; assay type: cell-based, Streptococcus mutans; details: Wilkins-Chalgren broth pH 7 (±0.2)
Experimental: This is a standard international method for quantitatively assessing the antimicrobial activity of a compound in a liquid medium. The method used a sterile 96-well microtitre plate, capable of holding about 200 μl of liquid per well. […] The culture medium was as described above.
as §1, §2

Compound	MIC (P. acnes NCTC 737)	MIC (S. aureus ATCC 29213 [1])	MBC (S. aureus ATCC 29213 [2])	DDA zone diameter (S. aureus ATCC 29213 [3])	MBC (C. striatum NCTC 764)	MIC (S. mutans ATCC 25175)	MIC (P. acnes NCTC 737; Cutibacterium acnes, NCTC737, read-out: MIC)	MIC (S. aureus ATCC 29213 [1]; Staphylococcus aureus, ATCC29213, read-out: MIC)	MBC (S. aureus ATCC 29213 [2]; Staphylococcus aureus, ATCC29213, read-out: MBC)	zone of inhibition at 200 µg/disc (S. aureus ATCC 29213 [3]; Staphylococcus aureus, ATCC29213, read-out: DDA zone diameter)	MBC (C. striatum NCTC 764; Corynebacterium striatum, NCTC764, read-out: MBC)	MIC (S. mutans ATCC 25175; Streptococcus mutans, ATCC25175, read-out: MIC)
CC(=O)c1c([O-])c(C)c([O-])c2c1OC1=CC(=O)C(C(C)=O)C(=O)C12C.[Cu+2] (stereo not drawn) [Copper usnate, copper (II) usnate]	0.49 µg/mL	7.8 µg/mL	62.5 µg/mL	14.8 ± 0.3 mm	62.5 µg/mL	1.95 µg/mL						
CC(=O)c1c(O)c(C)c(O)c2c1OC1=CC(=O)C(C(C)=O)C(=O)C12C (stereo not drawn) [Usnic acid, 2,6-diacetyl-7,9-dihydroxy-8,9b-dimethyl-1,3(2H,9bh)-dibenzofurandione]							0.49 µg/mL (≈ 1.42 µM)	31.2 µg/mL (≈ 90.8 µM)	250 µg/mL (≈ 726 µM)	13.6 ± 0.3 mm	62.5 µg/mL (≈ 182 µM)	3.9 µg/mL (≈ 11.3 µM)
